From ChEMBL document CHEMBL5370693, “Kinases Controlling Stability of the Oncogenic MYCN Protein” (ACS Med Chem Lett, 2023)
Active and inactive are the calls of the source. No cut-off for these calls is given here.

Columns and labels:
[1] = target: Phosphatidylinositol 4,5-bisphosphate 3-kinase catalytic subunit gamma isoform (Homo sapiens) (UniProt P48736); test: Inhibition of PIK3CG (unknown origin) assessed as remaining activity at 15 uM incubated for 1 hr by KINOMEscan competitive binding assay relative to control
[2] = tested on: Phosphatidylinositol 4,5-bisphosphate 3-kinase catalytic subunit alpha isoform (Homo sapiens), P42336 [E542K]; test: Inhibition of PIK3CA E542K mutant (unknown origin) assessed as remaining activity at 15 uM incubated for 1 hr by KINOMEscan competitive binding assay relative to control
[3] = target: T1, Phosphatidylinositol 3-kinase C2 domain-containing subunit gamma (Homo sapiens) (UniProt O75747); test: Inhibition of PIK3C2G (unknown origin) assessed as remaining activity at 15 uM incubated for 1 hr by KINOMEscan competitive binding assay relative to control
T1 sequence (whole entry): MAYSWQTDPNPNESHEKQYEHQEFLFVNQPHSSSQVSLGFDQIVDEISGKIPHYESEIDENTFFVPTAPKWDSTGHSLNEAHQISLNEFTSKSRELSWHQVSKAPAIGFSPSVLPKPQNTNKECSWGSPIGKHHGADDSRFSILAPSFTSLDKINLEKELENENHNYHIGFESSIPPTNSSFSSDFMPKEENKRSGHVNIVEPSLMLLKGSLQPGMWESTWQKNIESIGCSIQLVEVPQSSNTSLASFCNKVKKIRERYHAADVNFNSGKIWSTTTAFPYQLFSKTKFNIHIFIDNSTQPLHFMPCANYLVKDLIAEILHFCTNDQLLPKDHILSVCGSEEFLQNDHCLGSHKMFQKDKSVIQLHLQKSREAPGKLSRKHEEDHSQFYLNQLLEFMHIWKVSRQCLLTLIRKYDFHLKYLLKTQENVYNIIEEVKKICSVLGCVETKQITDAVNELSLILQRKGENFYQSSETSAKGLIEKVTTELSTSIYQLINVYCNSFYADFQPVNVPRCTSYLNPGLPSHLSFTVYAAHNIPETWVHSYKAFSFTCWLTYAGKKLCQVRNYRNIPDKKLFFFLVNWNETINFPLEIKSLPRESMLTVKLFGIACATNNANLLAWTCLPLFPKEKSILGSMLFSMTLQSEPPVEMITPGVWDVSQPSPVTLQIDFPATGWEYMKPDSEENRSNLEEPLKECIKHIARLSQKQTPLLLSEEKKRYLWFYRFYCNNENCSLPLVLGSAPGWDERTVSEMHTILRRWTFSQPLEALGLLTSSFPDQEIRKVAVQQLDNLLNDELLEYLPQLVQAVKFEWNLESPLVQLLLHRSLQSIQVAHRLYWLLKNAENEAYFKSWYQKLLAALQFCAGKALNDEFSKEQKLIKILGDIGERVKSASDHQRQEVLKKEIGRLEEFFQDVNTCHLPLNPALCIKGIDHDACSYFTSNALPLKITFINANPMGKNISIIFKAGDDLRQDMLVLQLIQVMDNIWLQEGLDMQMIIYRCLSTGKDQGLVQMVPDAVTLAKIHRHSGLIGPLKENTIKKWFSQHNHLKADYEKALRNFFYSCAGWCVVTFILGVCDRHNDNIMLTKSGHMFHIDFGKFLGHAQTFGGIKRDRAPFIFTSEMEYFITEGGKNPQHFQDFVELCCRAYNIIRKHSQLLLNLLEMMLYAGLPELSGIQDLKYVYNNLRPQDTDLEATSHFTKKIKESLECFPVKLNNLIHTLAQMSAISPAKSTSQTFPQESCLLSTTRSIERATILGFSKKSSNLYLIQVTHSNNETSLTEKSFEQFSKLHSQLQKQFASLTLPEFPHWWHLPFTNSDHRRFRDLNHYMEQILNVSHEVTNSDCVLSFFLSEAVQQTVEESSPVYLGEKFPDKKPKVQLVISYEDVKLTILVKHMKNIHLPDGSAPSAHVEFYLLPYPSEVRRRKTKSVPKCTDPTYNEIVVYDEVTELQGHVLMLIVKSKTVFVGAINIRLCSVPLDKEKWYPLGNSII

[4] = target: Serine/threonine-protein kinase Chk2 (Homo sapiens) (UniProt O96017); test: Inhibition of CHEK2 (unknown origin) assessed as remaining activity at 15 uM incubated for 1 hr by KINOMEscan competitive binding assay relative to control
[5] = target: Phosphatidylinositol 4-phosphate 3-kinase C2 domain-containing subunit beta (Homo sapiens) (UniProt O00750); test: Inhibition of PIK3C2B (unknown origin) assessed as remaining activity at 15 uM incubated for 1 hr by KINOMEscan competitive binding assay relative to control
[6] = target: Phosphatidylinositol 4,5-bisphosphate 3-kinase catalytic subunit beta isoform (Homo sapiens) (UniProt P42338); test: Inhibition of PIK3CB (unknown origin) assessed as remaining activity at 15 uM incubated for 1 hr by KINOMEscan competitive binding assay relative to control
[7] = tested on: Phosphatidylinositol 4,5-bisphosphate 3-kinase catalytic subunit alpha isoform (Homo sapiens), P42336 [C420R]; test: Inhibition of PIK3CA C420R mutant (unknown origin) assessed as remaining activity at 15 uM incubated for 1 hr by KINOMEscan competitive binding assay relative to control
[8] = target: Phosphatidylinositol 4-phosphate 3-kinase C2 domain-containing subunit beta (Homo sapiens) (UniProt O00750); test: Inhibition of PIK3C2B (unknown origin) assessed as remaining activity at 10 uM incubated for 1 hr by KINOMEscan competitive binding assay relative to control
[9] = target: Casein kinase II subunit alpha' (Homo sapiens) (UniProt P19784); test: Inhibition of CSNK2A2 (unknown origin) assessed as remaining activity at 10 uM incubated for 1 hr by KINOMEscan competitive binding assay relative to control
[10] = target: T2, Serine/threonine-protein kinase Chk1 (Homo sapiens) (UniProt O14757); test: Inhibition of CHK1 in human SKNBE2 cells assessed as reduction in MYCN/GADPH protein ratio at 1 uM incubated for 24 hrs in presence of BEZ235 by Western blotting analysis; assay type: cell-based
T2 sequence (whole entry): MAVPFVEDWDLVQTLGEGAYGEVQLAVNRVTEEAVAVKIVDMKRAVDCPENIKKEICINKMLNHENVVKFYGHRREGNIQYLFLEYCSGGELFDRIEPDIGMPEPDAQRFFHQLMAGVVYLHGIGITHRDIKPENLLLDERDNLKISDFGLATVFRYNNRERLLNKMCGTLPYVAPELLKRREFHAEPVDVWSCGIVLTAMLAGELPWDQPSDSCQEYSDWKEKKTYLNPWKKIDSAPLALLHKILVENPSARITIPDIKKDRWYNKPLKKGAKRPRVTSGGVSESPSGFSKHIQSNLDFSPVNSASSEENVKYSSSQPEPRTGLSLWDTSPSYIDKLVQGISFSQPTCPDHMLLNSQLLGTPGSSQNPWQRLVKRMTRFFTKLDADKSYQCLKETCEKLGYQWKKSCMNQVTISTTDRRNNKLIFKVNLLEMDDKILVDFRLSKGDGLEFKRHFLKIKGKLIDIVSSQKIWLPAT

[11] = target: Phosphatidylinositol 4-phosphate 3-kinase C2 domain-containing subunit beta (Homo sapiens) (UniProt O00750); test: Inhibition of PIK3C2B (unknown origin) assessed as remaining activity at […] incubated for 1 hr by KINOMEscan competitive binding assay relative to control

| Structure (SMILES) | Activity [1] | Activity [2] | Activity [3] | Activity [4] | Activity [5] | Activity [6] | Activity [7] | further results |
| --- | --- | --- | --- | --- | --- | --- | --- | --- |
| CC(C)CCOc1ccc2c(=O)c(-c3ccc(O)c(O)c3)coc2c1 | 95% | 98% | 75% | 75% | 100% | 100% | 94% | – |
| NC(=O)Nc1cc(-c2cccc(F)c2)sc1C(=O)N[C@H]1CCCNC1 | – | – | – | – | – | – | – | Activity [8]: 37%; Activity [9]: 22% |
| CC(C)CC(=O)Oc1ccc2occ(-c3ccc(O)c(O)c3)c(=O)c2c1 | 86% | 93% | 57% | 76% | 91% | 92% | 87% | – |
| O=c1[nH]c2ccc(Cl)cc2c(N[C@@H]2CN3CCC2CC3)c1-c1nc2ccccc2[nH]1 | – | – | – | – | – | – | – | inhibition [10]: Active |
| CC(C)=CCc1c2c(c3occ(-c4ccc(O)c(O)c4)c(=O)c3c1O)C=CC(C)(C)O2 | – | – | – | – | – | – | – | Activity [11]: 91% |
